Results as given in ChEMBL document CHEMBL1201862, “PubChem BioAssay data set” (2004).
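Cultured in 96-well plates, cells were exposed to test compound for 48 hours across five concentrations. Abbreviation: GI50, concentration required for 50% inhibition of growth.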 The source made the active and inactive calls. No stated cut-off is given here; in the data, active = GI50 up to about 1.1 µM and inactive = higher.

Tests used:
Assay in all cases: growth of human tumour cells (NCI), 48 h
SF-295 = test system: SF-295
SNB-75 = test system: SNB-75
Malme-3M = test system: Malme-3M
NCI-H522 = test system: NCI-H522
786-0 = test system: 786-0
UO-31 = test system: UO-31
HCT-116 = test system: HCT-116
MOLT-4 = test system: MOLT-4
HCT-15 = test system: HCT-15
LOX IMVI = test system: LOX IMVI
UACC-62 = test system: UACC-62
HL-60 = test system: HL-60
SK-OV-3 = test system: SK-OV-3
OVCAR-5 = test system: OVCAR-5
OVCAR-3 = test system: OVCAR-3
HOP-92 = test system: HOP-92

| SMILES | GI50 (SF-295) | GI50 (SNB-75) | GI50 (Malme-3M) | GI50 (NCI-H522) | GI50 (786-0) | GI50 (UO-31) | GI50 (HCT-116) | GI50 (MOLT-4) | GI50 (HCT-15) | GI50 (LOX IMVI) | GI50 (UACC-62) | GI50 (HL-60) | GI50 (SK-OV-3) | GI50 (OVCAR-5) | GI50 (OVCAR-3) | GI50 (HOP-92) |
| --- | --- | --- | --- | --- | --- | --- | --- | --- | --- | --- | --- | --- | --- | --- | --- | --- |
| CNS(=O)(=O)NN(C)S(=O)(=O)c1ccccc1 | > 100 µM (inactive) | > 100 µM (inactive) | > 100 µM (inactive) | > 100 µM (inactive) | > 100 µM (inactive) | > 100 µM (inactive) | > 100 µM (inactive) | > 100 µM (inactive) | > 100 µM | > 100 µM (inactive) | > 100 µM (inactive) | > 100 µM (inactive) | – | – | – | – |
| CN(CC(=O)O)S(=O)(=O)c1ccc2ccccc2c1 | > 100 µM (inactive) | > 100 µM (inactive) | > 100 µM (inactive) | > 100 µM (inactive) | > 100 µM (inactive) | > 100 µM (inactive) | – | > 100 µM (inactive) | > 100 µM | > 100 µM (inactive) | > 100 µM (inactive) | > 100 µM (inactive) | > 100 µM (inactive) | > 100 µM (inactive) | > 100 µM (inactive) | > 100 µM (inactive) |
| CC(Oc1ccc2c(-c3ccc(Cl)cc3)cc(=O)oc2c1)C(=O)O (configuration not stated) | > 100 µM (inactive) | > 100 µM (inactive) | > 100 µM (inactive) | > 100 µM (inactive) | > 100 µM (inactive) | > 100 µM (inactive) | > 100 µM (inactive) | > 100 µM (inactive) | – | > 100 µM (inactive) | > 100 µM (inactive) | > 100 µM (inactive) | > 100 µM (inactive) | – | > 100 µM (inactive) | > 100 µM (inactive) |
| COC(=O)C12CC(C3CC31)C1CC12 (configuration not stated) | > 100 µM (inactive) | – | > 100 µM (inactive) | – | > 100 µM (inactive) | > 100 µM (inactive) | > 100 µM (inactive) | > 100 µM (inactive) | > 100 µM | > 100 µM (inactive) | > 100 µM (inactive) | > 100 µM (inactive) | > 100 µM (inactive) | > 100 µM (inactive) | > 100 µM (inactive) | 59 µM (inactive) |
| C#C[C@]1(O)CCC2C3CCc4cc(Oc5nc(F)nc(-n6c(C)nc7cc8ccccc8cc76)n5)ccc4C3CCC21C (some centres not stated) | 33.8 µM (inactive) | 35.6 µM (inactive) | 47.3 µM (inactive) | 37.3 µM (inactive) | 57 µM (inactive) | 75.2 µM (inactive) | 32.8 µM (inactive) | 27.4 µM (inactive) | – | 40.1 µM (inactive) | 29.2 µM (inactive) | 31.1 µM (inactive) | 62.1 µM (inactive) | – | 50.1 µM (inactive) | 16.3 µM (inactive) |
| CC(C)(C)N/N=C(\C(=O)Nc1cccc(Cl)c1)C1C(=O)Nc2ccccc2[S+]1[O-] (configuration not stated) | > 100 µM (inactive) | > 100 µM (inactive) | 21.6 µM (inactive) | > 100 µM (inactive) | > 100 µM (inactive) | > 100 µM (inactive) | > 10 µM (inactive) | > 100 µM (inactive) | > 100 µM | > 100 µM (inactive) | > 100 µM (inactive) | > 100 µM (inactive) | > 100 µM (inactive) | – | > 100 µM (inactive) | 74.8 µM (inactive) |
| O=c1/c(=C/c2ccccc2[N+](=O)[O-])sc2nnc(-c3cccnc3)n12 | > 100 µM (inactive) | > 100 µM (inactive) | > 100 µM (inactive) | – | > 100 µM (inactive) | > 100 µM (inactive) | > 100 µM (inactive) | 63.5 µM (inactive) | > 100 µM | > 100 µM (inactive) | > 100 µM (inactive) | > 100 µM (inactive) | – | > 100 µM (inactive) | > 100 µM (inactive) | > 100 µM (inactive) |
| CC1=Nn2c(nnc2-c2ccc(Cl)cc2)NC(C)(C)C1 | > 100 µM (inactive) | – | > 100 µM (inactive) | > 100 µM (inactive) | > 100 µM (inactive) | > 100 µM (inactive) | – | > 100 µM (inactive) | > 100 µM | > 100 µM (inactive) | > 100 µM (inactive) | > 100 µM (inactive) | > 100 µM (inactive) | > 100 µM (inactive) | > 100 µM (inactive) | > 100 µM (inactive) |
| O=c1n(-c2ccccc2)c(=O)n2n1C1C=CC2C2C(C1)C2(Cl)Cl (configuration not stated) | > 100 µM (inactive) | > 100 µM (inactive) | > 100 µM (inactive) | > 100 µM (inactive) | > 100 µM (inactive) | > 100 µM (inactive) | > 100 µM (inactive) | > 100 µM (inactive) | > 100 µM | > 100 µM (inactive) | > 100 µM (inactive) | > 100 µM (inactive) | > 100 µM (inactive) | > 100 µM (inactive) | > 100 µM (inactive) | – |
| COc1ccc2ccc3c(c2c1)CN1CCc2cc(OC)c(OC)cc2C1C3 (configuration not stated) | > 100 µM (inactive) | 28.1 µM (inactive) | > 100 µM (inactive) | > 100 µM (inactive) | > 100 µM (inactive) | > 100 µM (inactive) | – | > 100 µM (inactive) | > 100 µM | > 100 µM (inactive) | > 100 µM (inactive) | > 100 µM (inactive) | > 100 µM (inactive) | > 100 µM (inactive) | > 100 µM (inactive) | > 100 µM (inactive) |
